# Experimental data published in patent US20250019346A1, “Salts of Ruxolitinib and Crystalline Forms Thereof” (Apotex Inc., priority 2021, published 2025).
# Read-outs that look alike come from different tables or passages of the source.
# Columns and labels:
# [1] = Comparative intrinsic dissolution testing (Wood apparatus); type: physicochemical; details: 900 mL deionized water, 75 rpm, sample compressed at 1.5 metric tons for 1 minute
# Description: Intrinsic dissolution rate (IDR) measurements were performed using a Wood apparatus. Samples were prepared by compressing 250-300 mg sample at 1.5 metric tons for 1 minute. A dissolution medium consisting of 900 mL deionized water, and rotation speed of 75 rpm, was used for each experiment.
# [2] = uncapped samples, 40° C./75% RH
# Description: PXRD diffractograms were recorded on a Bruker D8 Discover powder X-ray diffractometer (Bruker AXS LLC, Karlsruhe, Germany). The generator was a Incoatec Microfocus Source (IμS) Cu tube (λ=1.54060 Å) with a voltage of 50 kV and current of 1.00 mA, using a divergence slit of 0.1 mm and collimator of 2.0 mm. For each sample, two frames were collected using a still scan with a PILATUS3 R 100K-A detector at the distance of 294.2 mm from the sample. Raw data were evaluated using the program DIFFRAC.EVA (Bruker AXS LLC, Karlsruhe, Germany).
# [3] = pH values 1.2, 4.5 and 6.8
# [4] = per CDER review, NDA 202192; cited from earlier work
SMILES,Intrinsic Dissolution Rate [1],Change in the crystalline form (PXRD) ([2]; at least 5 months),also measured
N#CCC(C1CCCC1)n1cc(-c2ncnc3[nH]ccc23)cn1.O=S(=O)(O)CCS(=O)(=O)O (stereo not shown) [Ruxolitinib edisylate Form APO-I],0.1711 mg min^−1 cm^−2,no change in the crystalline form occurred,
CC1=CC(=O)NS(=O)(=O)O1.N#CCC(C1CCCC1)n1cc(-c2ncnc3[nH]ccc23)cn1 (stereo not shown) [Ruxolitinib acesulfamate Form APO-II],0.0767 mg min^−1 cm^−2,no change in the crystalline form occurred,
CS(=O)(=O)O.N#CC[C@H](C1CCCC1)n1cc(-c2ncnc3[nH]ccc23)cn1 [Ruxolitinib mesylate Form APO-I],,,Change in the crystalline form (PXRD) ([2]; at least 8 months): no change in the crystalline form occurred; Solubility [3]: high solubility
N#CC[C@H](C1CCCC1)n1cc(-c2ncnc3[nH]ccc23)cn1 [Ruxolitinib phosphate],0.0545 mg min^−1 cm^−2,,Biopharmaceutics Classification System (BCS) class [4]: Class I; Permeability [4]: high permeability; Solubility [4]: high solubility
N#CCC(C1CCCC1)n1cc(-c2ncnc3[nH]ccc23)cn1.O=S(=O)(O)c1cccc2c(S(=O)(=O)O)cccc12 (stereo not shown) [Ruxolitinib napadisylate Form APO-I],,no change in the crystalline form occurred,
CC1=CC(=O)NS(=O)(=O)O1.N#CC[C@H](C1CCCC1)n1cc(-c2ncnc3[nH]ccc23)cn1 [Ruxolitinib acesulfamate Form APO-I],0.2261 mg min^−1 cm^−2,,Change in the crystalline form (PXRD) ([2]; 8 weeks): no change in the crystalline form occurred
